In patent publication US20260272960A1, “[…] COMPOUNDS, PREPARATION METHOD AND USE THEREOF” (HC SYNTHETIC PHARMACEUTICAL CO., LTD., priority 2022, published 2026):
Converted amounts (≈) assume the structure as drawn. Where two headings read alike, the source gives them in different places.

How the values were obtained:
[1] = Solubility test in water, methanol and isopropanol; assay type: physicochemical
Protocol: The solubility in water, methanol, and isopropanol of the compounds of the present disclosure and the comparative compounds were measured separately.

[2] = Accelerated stability test; assay type: physicochemical; conditions: 40° C.±2° C., relative humidity 75%+5%
Protocol: The compound of the present disclosure was placed at a temperature of 40° C.±2° C. and a relative humidity of 75%+5% for 6 months, and samples were taken to determine for the descriptions, related substances, and contents.

[3] = test system: histamine-induced asthma in guinea pigs; assay: Antiasthmatic effect on histamine-induced asthma in guinea pigs (latency period); assay type: in vivo, guinea pig; conditions: 1 mg/kg oral gavage, sixty minutes after administration; no asthma within 8 minutes counted as 8 minutes; X ± s, n = 5
Protocol: The guinea pigs were placed in a polymethyl methacrylate bell jar and a histamine hydrochloride solution was sprayed ultrasonically (0.8 mg/mL) for 40 seconds. The time point at which the guinea pigs developed asthma was recorded. The time of convulsion and fall was taken as the latency period. Guinea pigs with a latency period exceeding 180 seconds were not selected. […] The guinea pigs were administered by oral gavage at a dose of 2 mL/kg·bw. Sixty minutes after the administration, the guinea pigs were placed in bell jars, and histamine hydrochloride solution was sprayed under the same conditions as in the previous selection. The latency period for the onset of asthma was recorded. […] The results were processed statistically.

[4] = test system: isolated ileal smooth muscle of guinea pigs; assay: Effect on muscle tone of isolated ileal smooth muscle of guinea pigs (no histamine added); set-up: species or system guinea pig; conditions: 5 minutes after adding the drug, X ± s, n = 8
Protocol: The guinea pig was knocked unconscious with a wooden stick, and the abdomen was immediately dissected to separate the ileum about 15 cm in length. The contents of the intestinal segment were flushed with Tyrode's solution and placed in Tyrode's solution at a constant temperature of 37° C. for later use, and oxygen was supplied simultaneously. The experimental intestinal tract (1 cm in length) was cut and placed into 20 ml of Tyrode's solution at a constant temperature of 37° C. with a continuous oxygen supply. One end of the intestine was fixed on the ventilation hook and the other end was connected to the muscle tone transducer and led to the computer interface. The muscle tone value of the ileal smooth muscle was recorded with a BL system. The experiment was carried out after the intestinal segment contraction became stable. […] The operation was repeated 8 times. The antispasmodic percentage was calculated according to the following formula. [formula]

[5] = isopropanol, organic solvent or mixture, isopropanol, read-out: Solubility, Isopropanol
[6] = methanol, organic solvent or mixture, methanol, read-out: Solubility, Methanol
[7] = water, read-out: Solubility, Water

Compound | solubility [1, 5] [mg/mL] | solubility [1, 6] [mg/mL] | other results
O=C1Cc2ccccc2C(=C2CCN(COP(=O)(O)O)CC2)c2ccsc21 [Compound III-1] | 24 (≈ 59.2 mM) | 35 (≈ 86.3 mM) | 
O=C1Cc2ccccc2C(=C2CCN(CCOP(=O)(O)O)CC2)c2ccsc21 [Compound III-2] |  |  | solubility ([1]; isopropanol, organic solvent or mixture, read-out: Solubility, Isopropanol): 24 mg/mL (≈ 57.2 mM)
O=C1Cc2ccccc2C(=C2CCN(CCCOP(=O)(O)O)CC2)c2ccsc21 [Compound III-3] |  | 35 (≈ 80.7 mM) | 
O=C1Cc2ccccc2C(=C2CCN(CCCCOP(=O)(O)O)CC2)c2ccsc21 [Compound III-4] | 24 (≈ 53.6 mM) | 35 (≈ 78.2 mM) | 
O=C1Cc2ccccc2C(=C2CCN(CCCOCOP(=O)(O)O)CC2)c2ccsc21 [Compound III-7] | 24 (≈ 51.8 mM) | 38 (≈ 82 mM) | 
O=C1Cc2ccccc2C(=C2CCN(CCCCCOCOP(=O)(O)O)CC2)c2ccsc21 [Compound III-9] | 24 (≈ 48.8 mM) | 38 (≈ 77.3 mM) | 
O=C1Cc2ccccc2C(=C2CCN(COP(=O)([O-])[O-])CC2)c2ccsc21.[Na+].[Na+] [Compound IV-1] | 1 | 35 | solubility [1, 7]: 488 mg/mL; Content ([2]; Month 1): 99.7%; Content ([2]; Month 3): 99.6%
O=C1Cc2ccccc2C(=C2CCN(CCOP(=O)([O-])[O-])CC2)c2ccsc21.[K+].[K+] [Compound IV-2] |  |  | Content ([2]; Month 1): 99.7%; Content ([2]; Month 2): 99.7%; Content ([2]; Month 6): 99.6%
O=C1Cc2ccccc2C(=C2CCN(CCCOP(=O)(O)O)CC2)c2ccsc21 [Compound IV-3] |  | 38 (≈ 87.7 mM) | solubility [1, 7]: 404 mg/mL (≈ 932 mM)
O=C1Cc2ccccc2C(=C2CCN(CCCCOP(=O)([O-])[O-])CC2)c2ccsc21.[Na+].[Na+] [Compound IV-4] | 1 | 35 | solubility [1, 7]: 476 mg/mL; Content ([2]; Month 1): 99.7%; Content ([2]; Month 3): 99.6%
O=C1Cc2ccccc2C(=C2CCN(CCCCCOP(=O)([O-])[O-])CC2)c2ccsc21.[Na+].[Na+] [Compound IV-5] | 1 |  | solubility [1, 7]: 478 mg/mL
O=C1Cc2ccccc2C(=C2CCN(CCOCOP(=O)(O)O)CC2)c2ccsc21 [Compound IV-6] |  |  | Content ([2]; Month 3): 99.6%
O=C1Cc2ccccc2C(=C2CCN(CCCCOCOP(=O)([O-])[O-])CC2)c2ccsc21.[Na+].[Na+] [Compound IV-8] |  |  | Content ([2]; Month 1): 99.7%; Content ([2]; Month 2): 99.7%; Content ([2]; Month 6): 99.6%
O=C1Cc2ccccc2C(=C2CCN(CCCCCOCOP(=O)([O-])[O-])CC2)c2ccsc21.[Na+].[Na+] [Compound IV-9] | 2 | 35 | solubility [1, 7]: 473 mg/mL
OCCCCN1CCC(=C2c3ccc(Cl)cc3CCc3cccnc32)CC1 [Hydroxybutyl desloratadine, hydroxybutyl desloratadine, reference compound] | 28 (≈ 73.1 mM) | 22 (≈ 57.5 mM) | 
OCCN1CCC(=C2c3ccc(Cl)cc3CCc3cccnc32)CC1 [Hydroxyethyl desloratadine, hydroxyethyl desloratadine, reference compound] | 21 (≈ 59.2 mM) | 27 (≈ 76.1 mM) | 
OCCCCCCN1CCC(=C2c3ccc(Cl)cc3CCc3cccnc32)CC1 [Hydroxyhexyl desloratadine, hydroxyhexyl desloratadine, reference compound] | 32 (≈ 77.9 mM) | 15 (≈ 36.5 mM) | 
OCCCCCN1CCC(=C2c3ccc(Cl)cc3CCc3cccnc32)CC1 [Hydroxypentyl desloratadine, hydroxypentyl desloratadine, reference compound] | 29 (≈ 73.1 mM) | 19 (≈ 47.9 mM) | 
OCCCN1CCC(=C2c3ccc(Cl)cc3CCc3cccnc32)CC1 [Hydroxypropyl desloratadine, hydroxypropyl desloratadine, reference compound] | 26 (≈ 70.5 mM) | 24 (≈ 65.1 mM) | 
CN1CCC(=C2c3ccccc3CC(=O)c3sccc32)CC1 [Ketotifen, ketotifen] | 20 (≈ 64.6 mM) | 30 (≈ 97 mM) | Post-administration latency period [3]: 263.11 ± 54.90 s; Smooth muscle tone (g) After administration [4]: 1.30 ± 0.30 g; Antispasmodic percentage (%) ([4]; no histamine): 23.53 ± 10.10%
Cc1cncc(CN2CCC(=C3c4ccccc4CC(=O)c4sccc43)CC2)c1 [Rupatifen, rupatifen, reference compound] | 20 (≈ 49.9 mM) | 30 (≈ 74.9 mM) | 
